The values below come from publication PMC9207806 (ACS Chemical Biology, 2022).

Where a name gives a salt, the structure may show the parent alone.

One assay has as its target T1, VACV D9 decapping enzyme (Vaccinia virus, UniProt P04311).
T1 construct: His-tag (C); made in house
The assay can be described thus: biochemical.
Details: not given
Format: biochemical. The method, then: Point fluorescence measurements were performed using the BioTek Synergy H1 microplate reader. Before each measurement, the reaction buffer was degassed. Experiments were performed in the Greiner 96-well, black, non-binding plates at 30 °C. Before the measurement, the plate was preincubated for 15 min at 30 °C with mixing (300 rpm). The point fluorescence was registered with 1 min interval and detection at 345 nm excitation wavelength and 378 nm emission wavelength.
Experiments to determine IC50 parameters were performed as point fluorescence measurements. Each well contained an appropriate buffer (10 mM MOPS·HCl, pH 7.0, 100 mM KOAc, containing 2 mM MgCl2, 0.3 mM MnCl2, and 2 mM DTT) with addition of 0.1% BSA, a fluorescent substrate (3 μM of probe 1b), an inhibitor (in half-logarithmic dilution, cinh ∈ 0, 100 μM), and an enzyme (5 nM of D9) to a final volume of 150 μL. To determine the IC50 values, a three parameter dose–response formula with standard hill slope from GraphPad Prism software was fitted [drawing 3] where V/V0 is the relative initial rate of the reaction, Imin and Imax are bottom and top plateaus, and Cinh is the concentration of the inhibitor.
`Nc1nc2ccc(Cl)cc2c2nc(-c3ccco3)nn12` [CGS-15943, reference compound]: the 50% inhibitory concentration (IC50) was 20.1 ± 5.2 µM.
The same measure, in the same setting: next, `Nc1nc2c(cnn2CCc2ccccc2)c2nc(-c3ccco3)nn12` [SCH 58261, reference compound]: 4.5 ± 0.8 µM; `COc1cc(NS(C)(=O)=O)ccc1Nc1c2ccccc2nc2ccccc12` [amsacrine hydrochloride, reference compound]: 12.6 ± 1.7 µM.

The assay is the same for the next values; noted with them: in-house nucleotide library (Table S1, Figure 3); 3 μM probe 1b, 5 nM D9, 30 °C; means of 3 independent experiments ± SEM; read-out: IC50, nucleotide-derived compounds, FLINT HTS assay.
As to `Nc1ncnc2c1ncn2[C@@H]1O[C@H](COP(O)(=S)OP(=O)(O)OP(O)(=S)OC[C@H]2O[C@@H](n3cnc4c(N)ncnc43)[C@H](O)[C@@H]2O)[C@@H](O)[C@H]1O` (some centres unmarked) [ApSppSA], the IC50 was > 100 µM.
Turning to `Nc1ncnc2c1ncn2[C@@H]1O[C@H](COP(=O)(O)OP(=O)(O)OP(=O)(O)OC[C@@H]2O[C@H](n3cnc4c(N)ncnc43)[C@@H](O)[C@H]2O)[C@@H](O)[C@H]1O` [ApppA], the IC50 is > 100 µM.
Consider `Cc1n([C@@H]2O[C@H](COP(=O)(O)OP(=O)(O)O)[C@@H](O)[C@H]2O)c2nc(N)[nH]c(=O)c2[n+]1C` [Compound 8Mem7GDP, 8Mem7GDP], for which the IC50 is > 100 µM.
As for `Cc1n([C@@H]2O[C@H](COP(=O)(O)OP(=O)(O)OP(=O)(O)O)[C@@H](O)[C@H]2O)c2nc(N)[nH]c(=O)c2[n+]1C` [Compound 8Mem7GTP, 8Mem7GTP], the half-inhibitory concentration (IC50) is 42.9 ± 7.8 µM.
As for `Nc1nc2c(ncn2[C@@H]2O[C@H](COP(=O)(O)OP(=O)(O)OP(=O)(O)O)[C@@H](O)[C@H]2O)c(=O)[nH]1` [GTP, reference compound], the half-inhibitory concentration (IC50) is 15.4 ± 2.7 µM.
With `Nc1nc2c(ncn2[C@@H]2O[C@H](COP(=O)(O)OP(=O)(O)OP(=O)(O)OC[C@H]3O[C@@H](n4cnc5c(N)ncnc54)[C@H](O)[C@@H]3O)[C@@H](O)[C@H]2O)c(=O)[nH]1` [GpppA], the IC50 was > 100 µM.
As to `Nc1nc2c(ncn2[C@@H]2O[C@H](COP(=O)(O)OP(=O)(O)OP(=O)(O)OC[C@H]3O[C@@H](n4cnc5c(=O)[nH]c(N)nc54)[C@H](O)[C@@H]3O)[C@@H](O)[C@H]2O)c(=O)[nH]1` [GpppG], the half-inhibitory concentration (IC50) is > 100 µM.
Turning to `C[n+]1cn([C@@H]2O[C@H](COP([O-])(=S)OP(=O)(O)O)[C@@H](O)[C@H]2O)c2nc(N)[nH]c(=O)c21` (some centres unmarked) [m7GDPαS D1], the concentration for half-maximal inhibition (IC50) was determined as 8.3 ± 1.7 µM.
As to `C[n+]1cn([C@@H]2O[C@H](COP(O)(=S)OP(=O)(O)O)[C@@H](O)[C@H]2O)c2nc(N)[nH]c(=O)c21` (some centres unmarked) [m7GDPαS D2], the IC50 amounted to 7.6 ± 1.2 µM.
On to `Cn1c[n+]([C@@H]2O[C@H](COP(=O)(O)O)[C@@H](O)[C@H]2O)c2nc(N)[nH]c(=O)c21` [m7GMP], for which the IC50 was > 100 µM.
With `C[n+]1cn([C@@H]2O[C@H](COP(O)(=S)OP(=O)(O)OP(=O)(O)O)[C@@H](O)[C@H]2O)c2nc(N)[nH]c(=O)c21` (some centres unmarked) [m7GTPαS], the IC50 was determined as 0.64 ± 0.06 µM.
Turning to `C[n+]1cn([C@@H]2O[C@H](COP(=O)(O)CP(=O)(O)OP(=O)(O)OC[C@H]3O[C@@H](n4cnc5c(=O)[nH]c(N)nc54)[C@H](O)[C@@H]3O)[C@@H](O)[C@H]2O)c2nc(N)[nH]c(=O)c21` [m7GpCH2ppG], the half-inhibitory concentration (IC50) came to 16.8 ± 3.3 µM.
Same read-out and setting: as for `C[n+]1cn(C2OC(COP(=O)(O)OP(=O)([O-])C(Cl)(Cl)P(=O)(O)OP(=O)(O)OCC3OC(n4cnc5c(=O)[nH]c(N)nc54)C(O)C3O)C(O)C2O)c2nc(N)nc(O)c21` (centres unmarked) [m7GppCCl2ppG], the figure is 41.4 ± 6.6 µM; as for `C[n+]1cn(C2OC(COP(=O)(O)OP(=O)([O-])C(F)(F)P(=O)(O)OP(=O)(O)OCC3OC(n4cnc5c(=O)[nH]c(N)nc54)C(O)C3O)C(O)C2O)c2nc(N)nc(O)c21` (centres unmarked) [m7GppCF2ppG], 16.7 ± 3.1 µM.

Still in this assay, the particulars now being: read-out: IC50, nucleotide-derived compounds, FLINT HTS assay; in-house nucleotide library (Table S1, Figure 3); 3 μM probe 1b, 5 nM D9, 30 °C; means of 3 independent experiments ± SEM.
As for `CO[C@@H]1[C@H](OP(=O)(O)OC[C@H]2O[C@@H](n3cnc4c(=O)[nH]c(N)nc43)[C@H](O)[C@@H]2O)[C@@H](COP(=O)(O)OP(=O)([O-])OP(=O)(O)OC[C@H]2O[C@@H](n3c[n+](C)c4c(=O)[nH]c(N)nc43)[C@H](O)[C@@H]2OC)O[C@H]1n1cnc2c(=O)[nH]c(N)nc21` [m7GmpppGmpG], the 50% inhibitory concentration (IC50) was determined as 3.9 ± 0.5 µM.
As to `C[n+]1cn([C@@H]2O[C@H](COP(=O)(O)CP(=O)([O-])OP(=O)(O)O)[C@@H](O)[C@H]2O)c2nc(N)nc(O)c21` [m7GpCH2pp], the 50% inhibitory concentration (IC50) was found to be 0.58 ± 0.06 µM.

Still in this assay, the particulars now being: read-out: IC50, nucleotide-derived compounds, FLINT HTS assay; in-house nucleotide library (Table S1, Figure 3); 3 μM probe 1b, 5 nM D9, 30 °C; means of 3 independent experiments ± SEM; listed as m^7GmpppGmpG.
For `CO[C@@H]1[C@H](OP(=O)(O)OC[C@H]2O[C@@H](n3cnc4c(=O)[nH]c(N)nc43)[C@H](O)[C@@H]2O)[C@@H](COP(=O)(O)OP(=O)([O-])OP(=O)(O)OC[C@H]2O[C@@H](n3c[n+](C)c4c(=O)[nH]c(N)nc43)[C@H](O)[C@@H]2OC)O[C@H]1n1cnc2c(=O)[nH]c(N)nc21` [m7GmpppGmpG], the IC50 is ~4 µM.

For orientation: IC50 means the concentration that gives 50% inhibition.
